From patent publication US7456197B2, “Pyridinium cationic lipids as gene transfer agents” (The Texas A&M University System, priority 2003, dated 2008)
“Also recorded” adds a separate entry of the source.

Legend:
[1] = Cationic liposome size by dynamic light scattering; type: physicochemical
Description: (§1) The three series of cationic lipids newly synthesized were assessed for their transfection efficiency in vitro, using the experimental conditions optimized in a previous study.^23 Essentially the cationic lipids were mixed with cholesterol at a 1:1 molar ratio, dissolved in chloroform/methanol and dried under vacuum to generate a lipid film. The dried lipid film was hydrated with sterile phosphate buffer isotonic saline with pH=7.4 (PBS) and sonicated to yield cationic liposomes. The resulting liposomal solution was allowed to react with a DNA solution to form the final cationic lipid-DNA complexes (lipoplexes), which were assessed for transfection efficiency using different cell cultures. We used a pGL3 plasmid (Promega, Madison, Wisc.), encoding a firefly luciferase gene under the control of the constitutively active SV40 promoter as the reporter for the transfection efficiency. An optimal^23 electrostatic charge ratio cationic lipid/DNA of 2:1 was used in all preparations. […] The ability of these new cationic lipids to generate relatively small cationic liposomes could be attributed to the relatively large curvature radius induced in the bilayer by the bulky pyridinium cationic head.
(§2) Dioleoylphosphatidylethanolamine (DOPE), cholesterol (CHOL), N-(2,3-dioleoyloxypropyl)-N,N,N-trimethylammonium chloride (DOTAP) were commercial products. The purity of the lipids was checked by thin layer chromatography and also by differential scanning calorimetry (DSC), which was also used for determining the critical temperature Tc. For the preparation of the liposomes a protocol optimized for this type of compounds was adopted as follows. The cationic lipid (with or without helper lipid) was dissolved in chloroform/methanol (2/1, v/v) to reach a final concentration of 1 mM for the charged species. From this stock solution 50 μL were aliquoted in a 1 mL tube and the solvent was evaporated in a SpeedVac evaporator, under vacuum, for 1 h. The dried lipid film was prepared by removing the traces of organic solvent in a dessicator, over Drierite®, under vacuum, overnight. The film was hydrated with 500 μL sterile phosphate buffer saline (PBS) the tube was purged with sterile N2, and vortexed for 1 minute. The liposomes were generated by sonicating the tube in a water bath sonicator for 5-30 minutes at 62° C. and at 37° C. for DOTAP. After sonication the preparations were allowed to reach room temperature.

[2] = tested on: lung cancer cell line NCI-H23; experiment: Luciferase (pGL3) transfection efficiency of lipoplexes, NCI-H23; type: cell-based, human
Description: as §1, §2
For generating the lipoplexes, 1.4-2.8 μL plasmid DNA solution (0.5 μg/μL) was diluted with 100 μL Optimem®. A liposome solution was prepared separately by diluting the initial liposomal stock solution (0.1 mM in cationic lipid) with Optimem® in specified proportions, to reach a final volume of 50 μL. Over this liposome solution 50 μL of the DNA stock solution was added, the tube was incubated for 30 minutes at room temperature and then the content diluted with 500 μL Optimem® (final volume of the lipoplex stock solution: 600 μL).
The lipoplexes was tested for their transfection properties over five different cancer cell lines—breast carcinoma (MCF-7 and MDA-Mb231), lung carcinoma (NCI-H23), prostate carcinoma (DU-145) and brain carcinoma (SWB-95). The cells were maintained in 10% fetal bovine serum (FBS)—enriched RPMI 1640 at 37° C. and 5% CO2 in a humidified atmosphere. Twenty-four hours prior to transfection the cells were transferred in 96-wells microtiter plate at a density of 20,000 cells/well. Each well received 100 μL medium and the plate was incubated in the same conditions. All experiments were done in triplicate or quadruplicate.
Immediately before transfection the medium was removed from each well and the cells were briefly washed with 200 μL sterile PBS. After removal of the PBS each well received 100 μL lipoplex stock solution and the plate was placed in the incubator for 1 hour. Then, 100 μL medium was added to each well and the plate was incubated for 24 hours. […]

[3] = tested on: breast carcinoma MCF-7; experiment: Luciferase (pGL3) transfection efficiency of lipoplexes, MCF-7; type: cell-based; settings: optimized lipoplexes, Chol 1:1, FIG. 7
From the text: (§3) It is well known that specific cell types and cell lines may vary in their ability to be transfected. In addition to the NCI-H23 lung cancer cell line, we therefore tested our optimized formulation of 5AMyr/Chol 1:1 versus DOTAP/Chol 1:1 as reference on four other cell lines from tumors representing cancers of great importance to human health, as well as different tissues of origin: breast carcinomas MCF-7, MDA-Mb231, prostate carcinoma DU-145 and glioma SWB-95 (FIG. 7).
(§4) Dioleoylphosphatidylethanolamine (DOPE), cholesterol (CHOL), N-(2,3-dioleoyloxypropyl)-N,N,N-trimethylammonium chloride (DOTAP) were commercial products. The purity of the lipids was checked by thin layer chromatography and also by differential scanning calorimetry (DSC), which was also used for determining the critical temperature Tc. For the preparation of the liposomes a protocol optimized for this type of compounds was adopted as follows. The cationic lipid (with or without helper lipid) was dissolved in chloroform/methanol (2/1, v/v) to reach a final concentration of 1 mM for the charged species. […]
(§5) For the luciferase assay, 20 μL of cell lysate was aliquoted in a test tube and assessed directly using a luciferase assay kit from Promega by means of a luminometer.
(§6) The protein content was quantified using a bicinchoninic acid (BCA) assay. […]

[4] = tested on: glioma SWB-95; experiment: Luciferase (pGL3) transfection efficiency of lipoplexes, SWB-95; type: cell-based; settings: optimized lipoplexes, Chol 1:1, FIG. 7
From the text: as §3, §4, §5, §6

[5] = tested on: lung cancer cell line NCI-H23; experiment: Luciferase (pGL3) transfection efficiency of lipoplexes, NCI-H23; type: cell-based, human; settings: exposure from one hour to three hours; data not shown

## CCCCCCCCCCCCCC(=O)OCC(COC(=O)CCCCCCCCCCCCC)[n+]1c(C)cc(C)cc1C.F[P-](F)(F)(F)(F)F [Lipid 5AMyr, 1-(1,3-dimyristoyloxypropane-2-yl)-2,4,6-trimethylpyridinium hexafluorophosphate]
[1]; cholesterol at 1:1 molar ratio to cationic lipid
  average size of the cationic vesicles: 95 nm
[1]; molar ratio of cholesterol to lipid halved
  average size of the cationic vesicles: 88 nm
[2]; 5Myr/Chol 1:1, PBS, sonicated two sequences of 15 minutes, FIG. 5
  transfection efficiency, counterion study: surpassed DOTAP in transfection efficiency
[2]; cholesterol 1:1
  expression of luciferase relative to DOTAP/Chol 1:1: about twice more effective than DOTAP
[2]; cholesterol as helper lipid 1:1, charge ratio lipid/DNA 2:1
  transfection efficiency (in words): highest transfection peaks; also recorded: the most effective
[2]; optimized lipoplexes, Chol 1:1, FIG. 7 caption (from FIG. 4)
  transfection efficiency (luciferase activity normalized for protein): 576000 RLU/μg of protein
[3]
  transfection efficiency (luciferase activity normalized for protein): 206000 RLU/μg of protein
[4]
  transfection efficiency (luciferase activity normalized for protein): 10934 RLU/μg of protein
[5]
  transfection efficiency on longer cell exposure to lipoplexes: higher transfection efficiencies
